{"source": "patent US20110098278A1", "about": "(priority 2009, published 2011)", "key": {"[1]": {"system": "human stomach circular smooth muscle", "experiment": "Ex vivo human stomach circular smooth muscle, electrical field stimulation", "type": "cell-based", "conditions": "human stomach strips under EFS; 100 nM to 100 μM"}, "[2]": {"system": "ferret", "experiment": "Emetic activity (retching and vomiting) in the ferret"}, "[3]": {"system": "Sprague Dawley rat", "experiment": "PICA behavior (kaolin consumption) in the Sprague Dawley rat as surrogate for emesis", "type": "in vivo", "conditions": "for Cumulative mean ± SD kaolin consumption: 40 mg base/kg po", "experimental": "This is a well established model for this purpose in the rat (Takeda N et al (1993) 45 817-21).\nOnce determined, a comparison was made of the effects of these doses on kaolin consumption over a 0-96 hour period in 24 h increments.\nIn detail groups of 10 male Sprague Dawley rats were habituated to kaolin for 3 days, then singly housed in grid-bottomed cages and habituated for a further 2 days prior to dosing. On the day of drug administration, the animals were food-deprived for 1 h prior to dosing. […] Access to a weighed quantity of food and kaolin was then restored. Food and kaolin was weighed 24, 48, 72 and 96 h after dosing."}, "[4]": {"system": "rabbit stomach circular smooth muscle", "experiment": "Ex vivo rabbit stomach circular smooth muscle, electrical field stimulation", "type": "cell-based", "conditions": "rabbit stomach strips under EFS; 100 nM to 100 μM"}, "[5]": {"system": "rat", "experiment": "Comparative acute toxicity (rat behavior) of sc and po galantamine", "type": "in vivo", "conditions": "individual rats"}, "[6]": {"experiment": "Local galantamine concentration within the stomach after a typical dose", "conditions": "following a typical 24 mg dose"}, "[7]": {"conditions": "20 mg (free base)/kg oral or similar molar dose"}, "[8]": {"conditions": "20 mg/kg p.o., 2 hr. observation, individual ferrets, listed as Galantamine HBr, hydrobromide"}}, "note": "Several values for one entry are separate records, joined by “and”; a condition that tells them apart may be missing. Equal entries are not always repeated. Entries after “also recorded” stand apart in the source; their conditions may differ. Structures can show the parent of a compound that is named as a salt."}
{"smiles": "COc1ccc2c3c1O[C@H]1C[C@@H](O)C=C[C@@]31CCN(C)C2", "note": "[Galantamine, (4aS,6R,8aS)-4a,5,9,10,11,12-hexahydro-3-methoxy-11-methyl-6H-benzofuro[3a,3,2ef][2]benzazepin-6-ol hydrobromide]", "values": [{"measurement": "stimulation of smooth muscle contractions (change in force production)", "setting": "[1]", "result": "evidence of a dose response"}, {"measurement": "animals dosed that retched", "setting": "[2]; [7]", "result": 55, "unit": "%"}, {"measurement": "animals dosed that vomited", "setting": "[2]; [7]", "result": 40, "unit": "%"}, {"measurement": "Total number of individual incidences of: Retching", "setting": "[2]; 20 mg/kg p.o. (galantamine free base content), 2 hr. observation, individual ferrets, listed as Galantamine HBr, hydrobromide", "result": "21 and 29 and 18 and 0 (9×) and 31 and 3 (2×) and 6 and 2 and 5 and 13 and 22"}, {"measurement": "Time (min) to onset of: Retching", "setting": "[2]; [8]", "result": "33 min and 3 min and 5 min (3×) and >120 min (8×) and 41 min and 11 min and 10 min and 7 min (2×) and 6 min (2×)"}, {"measurement": "Time (min) to onset of: Vomiting", "setting": "[2]; [8]", "result": "33 min and 75 min and 5 min (2×) and >120 min (11×) and 37 min and 10 min and 13 min and 6 min and 41 min"}, {"measurement": "Total number of individual incidences of: Vomiting", "setting": "[2]; [8]", "result": "4 (2×) and 1 (6×) and 0 (11×) and 2"}, {"measurement": "kaolin consumption compared with controls (in words)", "setting": "[3]; 3.5 mg/kg subcutaneous, over the whole 96 h period", "result": "no increase at all in kaolin consumption"}, {"measurement": "Cumulative mean ± SD kaolin consumption", "setting": "[3]; 24 h", "result": "2.73 ± 1.4", "unit": "g"}, {"measurement": "Cumulative mean ± SD kaolin consumption", "setting": "[3]; 48 h", "result": "3.36 ± 1.68", "unit": "g"}, {"measurement": "Cumulative mean ± SD kaolin consumption", "setting": "[3]; 72 h", "result": "4.07 ± 1.88", "unit": "g"}, {"measurement": "Cumulative mean ± SD kaolin consumption", "setting": "[3]; 96 h, hydrobromide", "result": "4.69 ± 2.43", "unit": "g"}, {"measurement": "Cumulative mean ± SD kaolin consumption", "setting": "[3]; 96 h, listed as galantamine, hydrobromide", "result": "4.69 ± 2.43", "unit": "g"}, {"measurement": "kaolin consumption / PICA behavior (in words)", "setting": "[3]; 40 mg/kg oral, over 96 h, hydrobromide", "result": "significantly higher; also recorded: marked PICA behavior"}, {"measurement": "rat kaolin consumption (g) over 24 h post-dose", "setting": "[3]; single oral dose 40 mg base/kg, Mean", "result": 1.79, "unit": "g"}, {"measurement": "rat kaolin consumption (g) over 24 h post-dose", "setting": "[3]; single oral dose 40 mg base/kg, individual rats 1-10, hydrobromide", "result": "1.06 g and 0.35 g and 0.02 g and 3.14 g and 4.47 g and 1.62 g and 0.16 g and 2.93 g and 3.11 g and 1.03 g"}, {"measurement": "rat kaolin consumption (g) over 24 h post-dose", "setting": "[3]; single subcutaneous dose of 3.5 mg base/kg, Mean (rat 7 omitted as outlier)", "result": 0.25, "unit": "g"}, {"measurement": "rat kaolin consumption (g) over 24 h post-dose", "setting": "[3]; single subcutaneous dose of 3.5 mg base/kg, individual rats 1-10, hydrobromide", "result": "0.67 g and 0.36 g and 0.88 g and 0.08 g and *1.57 g and 0.00 g (3×) and 0.21 g and 0.05 g"}, {"measurement": "stimulation of smooth muscle contractions (change in force production)", "setting": "[4]", "result": "evidence of a dose response"}, {"measurement": "Effect on rat behavior", "setting": "[5]; 3.5 mg/kg sc, 2 min post dose, hydrobromide", "result": "Rat 1: purposeless chewing, mouth; also recorded: Rat 3: purposeless chewing, mouth"}, {"measurement": "Effect on rat behavior", "setting": "[5]; 3.5 mg/kg sc, 5 min post-dose, hydrobromide", "result": "Rat 1: purposeless chewing, mouth movements,; also recorded: Rat 3: As per 2 min"}, {"measurement": "Effect on rat behavior", "setting": "[5]; 3.5 mg/kg sc, 10 min post-dose, hydrobromide", "result": "Rat 1: Tremors, flattened rostral body; also recorded: Rat 3: purposeless chewing, mouth"}, {"measurement": "Effect on rat behavior", "setting": "[5]; 3.5 mg/kg sc, 20 min post-dose, hydrobromide", "result": "Rat 1: Quiescent, flattened body posture,; also recorded: Rat 3: Some ambulation restored symptoms"}, {"measurement": "Effect on rat behavior", "setting": "[5]; 3.5 mg/kg sc, 30 min post-dose, hydrobromide", "result": "Rat 1: Quiescent, flattened body posture,; also recorded: Rat 3: Some ambulation restored"}, {"measurement": "Effect on rat behavior", "setting": "[5]; 3.5 mg/kg sc, 45 min post-dose", "result": "Rat 1: food consumption and more"}, {"measurement": "Effect on rat behavior", "setting": "[5]; 3.5 mg/kg sc, 1 h, hydrobromide", "result": "Rat 1: Normal; also recorded: Rat 3: Normal"}, {"measurement": "Effect on rat behavior", "setting": "[5]; 40 mg/kg po, 10 min post-dose, hydrobromide", "result": "Rat 6: Quiescent, purposeless; also recorded: Rat 7: Quiescent, purposeless chewing,"}, {"measurement": "Effect on rat behavior", "setting": "[5]; 40 mg/kg po, 20 min post-dose, hydrobromide", "result": "Rate 6 as per 10 min + arching; also recorded: Rat 7: grooming + purposeless"}, {"measurement": "Effect on rat behavior", "setting": "[5]; 40 mg/kg po, 30 min post-dose", "result": "Rat 6: quiescent, purposeless chewing,"}, {"measurement": "Effect on rat behavior", "setting": "[5]; 40 mg/kg po, 45 min post-dose, hydrobromide", "result": "Rat 6: flattened body posture, chewing,; also recorded: Rat 7: grooming, sawdust consumption"}, {"measurement": "Effect on rat behavior", "setting": "[5]; 40 mg/kg po, 1 h, hydrobromide", "result": "Rat 6: flattened body posture, tremor; also recorded: Rat 7: Grooming, sawdust"}, {"measurement": "Effect on rat behavior", "setting": "[5]; 40 mg/kg po, 1.5 h, hydrobromide", "result": "Rat 7: quiet, falttened posture"}, {"measurement": "Effect on rat behavior", "setting": "[5]; 40 mg/kg po, 2 h, hydrobromide", "result": "Rat 6: much improved; also recorded: Rat 7: much improved"}, {"measurement": "Effect on rat behavior", "setting": "[5]; 40 mg/kg po, 3 h, hydrobromide", "result": "Rat 6: normal; also recorded: Rat 7: normal"}, {"measurement": "Local concentrations within the stomach", "setting": "[6]", "result": "200 to 400", "unit": "µM"}]}
